“Also recorded” adds a separate entry of the source. Where two headings read alike, the source gives them in different places.
What was measured:
[1] = test system: Bacillus subtilis; assay: Well diffusion zone of inhibition, antibacterial; format: cell-based; conditions: for zone of inhibition at 250 µg/disc: Bacillus subtilis, 48 h, read-out: Diameter of inhibition zone, Bacillus subtilis; for Antibacterial activity against B. subtilis (in words): zone of inhibition compared to Ampicillin
[2] = test system: influenza A virus H3N2; assay: Anti influenza screening, cytopathic effect and cytotoxicity assays; format: cell-based; conditions: read-out: Influenza Type-A H3N2 EC50
[3] = test system: HCV; format: cell-based; conditions: read-out: HCV EC50
[4] = test system: HSV-1; assay: In vitro antiviral screening, cytopathic effect and neutral red assays; format: cell-based; conditions: read-out: HSV-1 EC50
[5] = test system: HSV-2; assay: as above; format: cell-based; conditions: read-out: HSV-2 EC50
[6] = test system: influenza B virus; assay: Anti influenza screening, cytopathic effect and cytotoxicity assays; format: cell-based; conditions: read-out: Influenza Type-B EC50
[7] = test system: SARS-CoV; assay: microbe, parasite or virus in culture; format: cell-based, severe acute respiratory syndrome coronavirus (SARS-CoV); conditions: for EC50: read-out: SARS-CoV EC50
[8] = test system: influenza A virus H5N1; format: cell-based; conditions: for EC50: read-out: Influenza Type-A H5N1 EC50
[9] = test system: HBV; format: cell-based; conditions: read-out: HBV EC50; DNA virion assay
[10] = test system: WNV; assay: In vitro antiviral screening, visual and neutral red tests; format: cell-based, West Nile virus (WNV); conditions: read-out: WNV EC50
[11] = test system: Asperigillus niger; assay: Well diffusion zone of inhibition, antifungal; format: cell-based; conditions: Aspergillus niger, read-out: Diameter of inhibition zone, Asperigillus niger
[12] = test system: Escherichia coli; assay: Well diffusion zone of inhibition, antibacterial; format: cell-based; conditions: for zone of inhibition at 250 µg/disc: Escherichia coli, 48 h, read-out: Diameter of inhibition zone, Escherichia coli
[13] = test system: influenza A virus H1N1; assay: Anti influenza screening, cytopathic effect and cytotoxicity assays; format: cell-based; conditions: read-out: Influenza Type-A H1N1 EC50

CC(=O)OC[C@H]1O[C@@H](n2c(-c3ccccn3)cc(-c3ccc(Cl)cc3)c(C#N)c2=O)[C@H](OC(C)=O)[C@@H](OC(C)=O)[C@H]1OC(C)=O [Compound 3aAc]
zone of inhibition at 250 µg/disc [1]: 1 mm
Antibacterial activity against B. subtilis (in words) [1]: lower antibacterial activity

N#Cc1c(-c2ccc(Cl)cc2)cc(-c2ccccn2)n(CCCO)c1=O [Compound 8a, 4-(4-Chlorolphenyl)-1-(3-hydroxypropyl)-2-oxo-6-(2-pyridyl)nicotinonitrile]
Antibacterial activity against B. subtilis (in words) [1]: lower antibacterial activity

4-(4-Isopropylphenyl)-2-oxo-6-(2-thienyl)nicotinonitrile [Compound 1b]
EC50 [2]: 22 µM
EC50 [3]: > 100 µM
EC50 [4]: > 300 µM
EC50 [5]: > 300 µM
EC50 [6]: 46 µM
EC50 [7]: > 26 µM
EC50 [8]: 32 µM
EC50 [9]: > 100 µM
EC50 [10]: > 2.2 µM

N#Cc1c(-c2cccs2)cc(-c2cccs2)n([C@@H]2O[C@H](CO)[C@@H](O)[C@H](O)[C@H]2O)c1=O [Compound 2c, 1-(β-D-Glucopyranosyl)-2-oxo-4,6-di(2-thienyl)nicotinonitrile]
zone of inhibition at 250 µg/disc [11]: 8 mm
zone of inhibition at 250 µg/disc [12]: 0 mm
Antibacterial activity against B. subtilis (in words) [1]: lower antibacterial activity

CC(=O)OCCOCn1c(-c2cccs2)cc(-c2cccs2)c(C#N)c1=O [Compound 7cAc, 1-[(2-Acetoxyethoxy)methyl]-2-oxo-4,6-di(2-thienyl)nicotinonitrile]
Antibacterial activity against B. subtilis (in words) [1]: moderate antibacterial activity

CC(=O)OC[C@H]1O[C@@H](n2c(-c3cccs3)cc(-c3ccc(C(C)C)cc3)c(C#N)c2=O)[C@H](OC(C)=O)[C@@H](OC(C)=O)[C@@H]1OC(C)=O [Compound 2bAc]
Antibacterial activity against B. subtilis (in words) [1]: lower antibacterial activity

4-(4-Chlorophenyl)-2-oxo-6-(2-pyridyl)nicotinonitrile [Compound 1a]
EC50 [2]: > 2.6 µM
EC50 [3]: > 100 µM
EC50 [4]: > 300 µM
EC50 [5]: > 300 µM
EC50 [6]: > 36 µM
EC50 [7]: > 0.32 µM
EC50 [13]: 26 µM
EC50 [8]: > 100 µM
EC50 [9]: > 100 µM
EC50 [10]: > 2.2 µM

CC(C)c1ccc(-c2cc(-c3cccs3)n(COCCO)c(=O)c2C#N)cc1 [Compound 7b, 1-[(2-Hydroxyethoxy)methyl]-4-(4-isopropylphenyl)-2-oxo-6-(2-thienyl)nicotinonitrile]
Antibacterial activity against E. coli (in words) ([12]; zone of inhibition): no activity
Antibacterial activity against B. subtilis (in words) [1]: good activity

N#Cc1c(-c2cccs2)cc(-c2cccs2)n([C@@H]2O[C@H](CO)[C@H](O)[C@H](O)[C@H]2O)c1=O [Compound 3c, 1-(β-D-Galactopyranosyl)-2-oxo-4,6-di(2-thienyl)-nicotinonitrile]
Antibacterial activity against B. subtilis (in words) [1]: lower antibacterial activity

CC(=O)OCCCCOc1nc(-c2ccccn2)cc(-c2ccc(Cl)cc2)c1C#N [Compound 5Ac]
Antibacterial activity against B. subtilis (in words) [1]: lower antibacterial activity

2-Oxo-4,6-di(2-thienyl)nicotinonitrile [Compound 1c]
EC50 [2]: 16 µM
EC50 [3]: > 100 µM
EC50 [4]: > 12 µM
EC50 [5]: > 12 µM
EC50 [6]: > 100 µM
EC50 [7]: > 100 µM
EC50 [13]: 32 µM
EC50 [8]: > 100 µM
EC50 [9]: > 100 µM
EC50 [10]: > 4.6 µM

CC(C)c1ccc(-c2cc(-c3cccs3)n([C@@H]3O[C@H](CO)[C@H](O)[C@H](O)[C@H]3O)c(=O)c2C#N)cc1 [Compound 3b, 1-(β-D-Galactopyranosyl)-4-(4-isopropylphenyl)-2-oxo-6-(2-thienyl)nicotinonitrile]
zone of inhibition at 250 µg/disc [11]: 8 mm
Antibacterial activity against B. subtilis (in words) [1]: lower antibacterial activity

N#Cc1c(-c2ccc(Cl)cc2)cc(-c2ccccn2)n([C@@H]2O[C@H](CO)[C@H](O)[C@H](O)[C@H]2O)c1=O [Compound 3a, 4-(4-Chlorophenyl)-1-(β-D-galactopyranosyl)-2-oxo-6-(2-pyridyl)nicotinonitrile]
Antibacterial activity against B. subtilis (in words) [1]: lower antibacterial activity

CC(C)c1ccc(-c2cc(-c3cccs3)n([C@@H]3O[C@H](CO)[C@@H](O)[C@H](O)[C@H]3O)c(=O)c2C#N)cc1 [Compound 2b, 1-(β-D-Glucopyranosyl)-4-(4-isopropylphenyl)-2-oxo-6-(2-thienyl)nicotinonitrile]
Antibacterial activity against B. subtilis (in words) [1]: moderate antibacterial activity

CC(=O)OC[C@H]1O[C@@H](n2c(-c3cccs3)cc(-c3cccs3)c(C#N)c2=O)[C@H](OC(C)=O)[C@@H](OC(C)=O)[C@@H]1OC(C)=O [Compound 2cAc]
EC50 ([7]; Severe acute respiratory syndrome coronavirus): > 32 µM
Antibacterial activity against B. subtilis (in words) [1]: lower antibacterial activity

N#Cc1c(-c2ccc(Cl)cc2)cc(-c2ccccn2)nc1OCCCCO [Compound 5, 4-(4-Chlorolphenyl)-2-(4-hydroxybutyloxy)-6-(2-pyridyl)nicotinonitrile]
Antibacterial activity against B. subtilis (in words) [1]: lower antibacterial activity

CC(=O)OC[C@H]1O[C@@H](n2c(-c3cccs3)cc(-c3ccc(C(C)C)cc3)c(C#N)c2=O)[C@H](OC(C)=O)[C@@H](OC(C)=O)[C@H]1OC(C)=O [Compound 3bAc]
zone of inhibition at 250 µg/disc [12]: 0 mm
zone of inhibition at 250 µg/disc [1]: 1 mm
Antibacterial activity against B. subtilis (in words) [1]: lower antibacterial activity

CC(=O)OC[C@H]1O[C@@H](n2c(-c3ccccn3)cc(-c3ccc(Cl)cc3)c(C#N)c2=O)[C@H](OC(C)=O)[C@@H](OC(C)=O)[C@@H]1OC(C)=O [Compound 2aAc]
Anti SARS-CoV activity (in words) [7]: slightly active by visual, but not neutral red test; also recorded: active
Anti influenza A (H5N1) activity (in words) [8]: good and slightly active and active

C=CCOc1nc(-c2ccccn2)cc(-c2ccc(Cl)cc2)c1C#N [Compound 9, 2-(Allyloxy)-4-(4-chlorolphenyl)-6-(2-pyridyl)nicotinonitrile]
Antibacterial activity against B. subtilis (in words) [1]: lower antibacterial activity

Reference: article PMC7115408 (European Journal of Medicinal Chemistry, 2014)
